Measurements: PubChem BioAssay AID328 (DTP/NCI, 2004)
Several values for one entry are separate records, joined by “and”; a condition that tells them apart may be missing. Equal values may be shown once. Toxic doses and inconclusive results are not listed. How the source made its calls: active means survival T/C of 150% or more; inactive means T/C below 125% in these data.

Tested on: BDF1 mice, P388 leukemia ip, median survival T/C
Assay: NCI In Vivo Anticancer Drug Screen. Data for tumor model P388 Leukemia (intraperitoneal) in B6D2F1 (BDF1) mice
Conditions: endpoint: median survival time, higher = longer survival
Method in brief: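 T/C = treated-group survival ÷ vehicle-control survival; tumour transplanted into mice before dosing.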

[1] = dose: 100.0 mg/kg/injection, schedule: Q04DX003 (ip), vehicle: saline with Tween-80
[2] = dose: 25.0 mg/kg/injection, schedule: Q01DX009 (ip), vehicle: saline with Tween-80
[3] = dose: 50.0 mg/kg/injection, schedule: Q01DX009 (ip), vehicle: saline with Tween-80
[4] = dose: 100.0 mg/kg/injection, schedule: Q01DX001 (ip), vehicle: saline with Tween-80
[5] = dose: 100.0 mg/kg/injection, schedule: Q01DX009 (ip), vehicle: saline with Tween-80
[6] = dose: 200.0 mg/kg/injection, schedule: Q01DX001 (ip), vehicle: saline with Tween-80
[7] = dose: 200.0 mg/kg/injection, schedule: Q04DX003 (ip), vehicle: saline with Tween-80
[8] = dose: 400.0 mg/kg/injection, schedule: Q04DX003 (ip), vehicle: saline with Tween-80
[9] = dose: 0.25 mg/kg/injection, schedule: Q01DX009 (ip), vehicle: water
[10] = dose: 0.5 mg/kg/injection, schedule: Q01DX009 (ip), vehicle: water
[11] = dose: 1.0 mg/kg/injection, schedule: Q01DX009 (ip), vehicle: water
[12] = dose: 2.0 mg/kg/injection, schedule: Q01DX009 (ip), vehicle: water
[13] = dose: 4.0 mg/kg/injection, schedule: Q01DX009 (ip), vehicle: water
[14] = dose: 50.0 mg/kg/injection, schedule: Q04DX003 (ip), vehicle: saline
[15] = dose: 100.0 mg/kg/injection, schedule: Q04DX003 (ip), vehicle: saline
[16] = dose: 200.0 mg/kg/injection, schedule: Q04DX003 (ip), vehicle: saline
[17] = dose: 12.5 mg/kg/injection, schedule: Q04DX003 (ip), vehicle: saline
[18] = dose: 200.0 mg/kg/injection, schedule: Q01DX009 (ip), vehicle: saline

Measured: T/C

NC(=S)c1cncnc1N
inactive: [1] 91 % of control

CC1=Nc2ccccc2N=C(C)C1
inactive: [2] 100 % of control | dose: 50.0 mg/kg/injection, schedule: Q01DX001 (ip), vehicle: saline with Tween-80 100 % of control | [3] 90 % of control | [4] 104 % of control | [5] 109 % of control | [1] 100 % of control | dose: 150.0 mg/kg/injection, schedule: Q01DX009 (ip), vehicle: saline with Tween-80 100 % of control | [6] 100 % of control | [7] 100 % of control

Clc1ccc(/C=N\N=C\c2ccc(Cl)c(Cl)c2)cc1Cl
inactive: [1] 105 % of control | [7] 111 % of control | [8] 111 % of control

C[n+]1c(/C=N/NC(N)=S)ccc2ccccc21
inactive: [2] 97 % of control | [3] 106 % of control | [5] 113 % of control

CCOC(=O)Nc1nc2ccccc2[nH]1
inactive: dose: 6.25 mg/kg/injection, schedule: Q01DX009 (ip), vehicle: saline with Tween-80 98 % of control | dose: 12.5 mg/kg/injection, schedule: Q01DX009 (ip), vehicle: saline with Tween-80 116 % of control | [2] 109 % of control | [3] 105 % of control

O=c1[nH]c(=O)c(C2OC(CO)C(O)C2O)co1 (configuration not stated)
inactive: dose: 20.0 mg/kg/injection, schedule: Q04DX003 (ip), vehicle: saline with Tween-80 100 % of control

OC(CCCCC(O)(c1ccccc1)c1ccccc1)(c1ccccc1)c1ccccc1
inactive: dose: 100.0 mg/kg/injection, schedule: Q01DX001 (ip), vehicle: Klucel (hydroxypropylcellulose) (HPC) 105 % of control | dose: 200.0 mg/kg/injection, schedule: Q01DX001 (ip), vehicle: Klucel (hydroxypropylcellulose) (HPC) 115 % of control | dose: 400.0 mg/kg/injection, schedule: Q01DX001 (ip), vehicle: Klucel (hydroxypropylcellulose) (HPC) 100 % of control

CC(=O)/C(C)=C/C=O
inactive: [9] 116 % of control | [10] 89 % of control and 96 % of control and 116 % of control | [11] 97 % of control and 103 % of control and 116 % of control | [12] 94 % of control and 97 % of control | [13] 96 % of control and 97 % of control and 116 % of control | dose: 8.0 mg/kg/injection, schedule: Q01DX009 (ip), vehicle: water 103 % of control

O=S(=O)(c1ccccc1)N1CCOC1=S
inactive: [1] 114 % of control | [7] 95 % of control | [8] 95 % of control

O=S(=O)(CI)OCCCl
inactive: dose: 50.0 mg/kg/injection, schedule: Q01DX005 (ip), vehicle: Klucel (hydroxypropylcellulose) (HPC) 93 % of control | dose: 100.0 mg/kg/injection, schedule: Q01DX005 (ip), vehicle: Klucel (hydroxypropylcellulose) (HPC) 110 % of control

CCOCCc1ccncc1
inactive: [14] 112 % of control | [15] 108 % of control | [16] 100 % of control

O=C(NN(Cn1c(=S)sc2ccccc21)Cn1c(=S)sc2ccccc21)c1ccncc1
inactive: dose: 6.25 mg/kg/injection, schedule: Q01DX009 (ip), vehicle: Klucel (hydroxypropylcellulose) (HPC) 102 % of control | dose: 12.5 mg/kg/injection, schedule: Q01DX009 (ip), vehicle: Klucel (hydroxypropylcellulose) (HPC) 120 % of control | dose: 25.0 mg/kg/injection, schedule: Q01DX009 (ip), vehicle: Klucel (hydroxypropylcellulose) (HPC) 118 % of control

COc1ccccc1C(=O)/C=C\c1ccc(OCc2ccccc2)cc1
inactive: [3] 89 % of control | [5] 86 % of control | dose: 200.0 mg/kg/injection, schedule: Q01DX009 (ip), vehicle: saline with Tween-80 87 % of control

CCCCCCCCCC(=O)NN1CCOCC1
inactive: [4] 104 % of control | [6] 120 % of control | dose: 400.0 mg/kg/injection, schedule: Q01DX001 (ip), vehicle: saline with Tween-80 104 % of control

OC(C1CO1)C(O)C1CO1 (configuration not stated)
active: dose: 1.0 mg/kg/injection, schedule: Q01DX009 (ip), vehicle: saline 282 % of control | dose: 2.0 mg/kg/injection, schedule: Q01DX009 (ip), vehicle: saline 168 % of control | dose: 2.5 mg/kg/injection, schedule: Q01DX009 (ip), vehicle: saline 190 % of control | dose: 5.0 mg/kg/injection, schedule: Q01DX009 (ip), vehicle: saline 260 % of control | dose: 6.7 mg/kg/injection, schedule: Q01DX001 (ip), vehicle: saline 189 % of control | dose: 6.7 mg/kg/injection, schedule: Q04DX003 (ip), vehicle: saline 250 % of control | dose: 10.0 mg/kg/injection, schedule: Q01DX001 (ip), vehicle: saline 336 % of control and 209 % of control and 219 % of control | dose: 10.0 mg/kg/injection, schedule: Q04DX003 (ip), vehicle: saline 413 % of control | dose: 12.5 mg/kg/injection, schedule: Q01DX001 (ip), vehicle: saline 231 % of control and 292 % of control and 333 % of control | [17] 387 % of control | dose: 15.0 mg/kg/injection, schedule: Q01DX001 (ip), vehicle: saline 280 % of control and 292 % of control and 318 % of control
inactive: dose: 10.0 mg/kg/injection, schedule: Q01DX009 (ip), vehicle: saline 110 % of control

COc1cccc2c1C(=O)c1c(O)c3c(c(O)c1C2=O)CC(O)(C(C)=O)CC3OC1CC(N)C(O)C(C)O1 (configuration not stated)
active: [9] 160 % of control | dose: 0.25 mg/kg/injection, schedule: Q01DX010 (ip), vehicle: saline 165 % of control and 175 % of control | [10] 173 % of control | dose: 0.5 mg/kg/injection, schedule: Q01DX010 (ip), vehicle: saline 180 % of control and 195 % of control | [11] 182 % of control | dose: 1.0 mg/kg/injection, schedule: Q01DX010 (ip), vehicle: saline 230 % of control and 200 % of control | [12] 210 % of control | dose: 2.0 mg/kg/injection, schedule: Q01DX010 (ip), vehicle: saline 155 % of control and 190 % of control and 220 % of control | [13] 157 % of control | dose: 4.0 mg/kg/injection, schedule: Q01DX010 (ip), vehicle: saline 180 % of control | dose: 8.0 mg/kg/injection, schedule: Q01DX001 (ip), vehicle: saline 150 % of control | dose: 60.0 mg/kg/injection, schedule: Q04DX003 (ip), vehicle: water 167 % of control | dose: 125.0 micrograms/kg/injection, schedule: Q01DX010 (ip), vehicle: saline 154 % of control | dose: 250.0 micrograms/kg/injection, schedule: Q01DX010 (ip), vehicle: saline 159 % of control
inactive: dose: 0.03 mg/kg/injection, schedule: Q01DX010 (ip), vehicle: saline 118 % of control | dose: 0.06 mg/kg/injection, schedule: Q01DX010 (ip), vehicle: saline 118 % of control | dose: 0.12 mg/kg/injection, schedule: Q01DX010 (ip), vehicle: saline 118 % of control | dose: 7.5 mg/kg/injection, schedule: Q04DX003 (ip), vehicle: water 104 % of control | dose: 8.0 mg/kg/injection, schedule: Q01DX010 (ip), vehicle: saline 90 % of control and 95 % of control | dose: 15.0 mg/kg/injection, schedule: Q04DX003 (ip), vehicle: water 119 % of control | dose: 16.0 mg/kg/injection, schedule: Q01DX001 (ip), vehicle: saline 90 % of control | dose: 240.0 mg/kg/injection, schedule: Q04DX003 (ip), vehicle: water 93 % of control

CCN(CC)CC(=O)Nc1ccc(Cl)cc1C(O)c1ccccc1 (configuration not stated)
inactive: dose: 50.0 mg/kg/injection, schedule: Q01DX009 (ip), vehicle: saline 103 % of control | dose: 100.0 mg/kg/injection, schedule: Q01DX009 (ip), vehicle: saline 97 % of control | [18] 100 % of control

O=C(/C=C/c1ccc2c(c1)OCO2)/C=C/c1ccc2c(c1)OCO2
inactive: dose: 12.5 mg/kg/injection, schedule: Q01DX009 (ip), vehicle: saline 101 % of control | [17] 105 % of control | dose: 25.0 mg/kg/injection, schedule: Q01DX009 (ip), vehicle: saline 96 % of control | dose: 25.0 mg/kg/injection, schedule: Q04DX003 (ip), vehicle: saline 112 % of control | [14] 114 % of control | [15] 114 % of control | [18] 92 % of control | [16] 114 % of control
